Assay results: patent publication US20250186403A1 (ARIZONA BOARD OF REGENTS ON BEHALF OF THE UNIVERSITY OF …, priority 2022, published 2025)
“And” between values parts separate entries of the source, which are not always exact repeats. Equal entries are not always repeated. Where two headings read alike, the source gives them in different places.

Assays:
C. neoformans (Cne-WT) = experiment: MIC by microdilution method; assay type: cell-based; conditions: Cryptococcus neoformans, 48 h
Protocol: (§1) Serial double dilution of the CMN was done in the RPMI-MOPS medium. Freshly grown fungal culture from the SD agar plate was resuspended in sterile water and diluted to get 0.1 OD at 600 nm. […] The plates were incubated at 30° C. for 48 h. Plates were checked for growth by visual observation. For Afu, resazurin was added to 44 µM and incubated for 12 h at 37° C. before noting a change in color from blue to pink by live cells. MIC is defined as the minimum concentration at which there is no growth when observed visually.

[1] = system: C. neoformans (Cne-Mut), inteinless mutant strain; experiment: MIC by microdilution method; assay type: cell-based; conditions: Cryptococcus neoformans, 48 h
Protocol: as §1

C. gattii (NIH444) = experiment: MIC by microdilution method; assay type: cell-based; conditions: Cryptococcus gattii, visual, 48 h, 30° C.
Protocol: as §1

C. amylolentus = experiment: MIC by microdilution method; assay type: cell-based
Protocol: as §1

[2] = Cytotoxicity (Cell Counting Kit-8); assay type: cell-based, murine; conditions: mouse, PMA-differentiated RAW 264.7 macrophage cells, PMA-differentiated RAW 264.7 cells
Protocol: FIGS. 4A, 4B, and 4C show in vitro and in vivo toxicity. […] A549 and RAW 264.7 cells were grown in 96 well plates till 70% confluent. RAW 264.7 cells were differentiated into macrophages using PMA. […] The cell viability was estimated by Cell Counting Kit-8 (GlpBio, CA, USA), and absorbance was read at 450 nm using microplate reader Synergy H1 (BioTek). CC50 was calculated by GraphPad prism. […] Abs: absorbance. […] Bodyweight and other parameters were monitored daily (Table 3).
Cells were seeded in 96 well plates at 1.5×10^4 cells/well of 96 well plates in DMEM media and incubated at a CO2 incubator at 37° C. for 24 h. For differentiation to macrophages, the media was replaced with fresh media containing 100 nM PMA and further incubated for 48 h in a CO2 incubator.

A. fumigatus = experiment: MIC by microdilution method (resazurin); assay type: cell-based; conditions: Aspergillus fumigatus
Protocol: as §1

[3] = system: recombinant Cne-Prp8 intein; experiment: Thermal shift assay; assay type: binding, Cryptococcus neoformans
Protocol: The Tm values were calculated by Thermal shift software. […] The assay was repeated three times. […]
Each treatment was done in quadruplicate. The mixture was incubated at room temperature for an hour before transferring to the QuantStudio 5 real-time PCR system (Applied Biosystems) and run with an increasing temperature from 20° C. to 90° C. The temperature at which there was 50% of the peak fluorescence (50% denaturation) was considered as Tm. The analysis was done using the Thermal Shift Assay software (Thermo Fischer Scientific). A graph was drawn using the GraphPad prism Version 9.1.0 after normalizing the fluorescent values. The treatment groups were compared with Student's t-test.

[4] = system: Cga split-cfGFP-Prp8 intein protein; experiment: Split GFP-Prp8 intein splicing assay (SDS-PAGE); assay type: biochemical, Cryptococcus gattii; conditions: vs DMSO control, 30 μM protein, 24 h
Protocol: TCEP is added to a final concentration of 100 µM and incubated for 24 h. The substrate Nano-Glo luciferase (Promega) was added, and the resulting luminescence was read. IC50 was calculated using GraphPad prism. […] TCEP was added to a concentration of 1 mM and incubated for 24 h. From this reaction mixture, 10 μl was mixed with an equal volume of 2×SDA-PAGE loading dye and loaded onto 12% SDS-PAGE gel without boiling the sample. The gel was scanned with UV using Chemidoc (Bio Rad), and band intensities were quantified using Image Lab software. […] Cells were harvested and washed in PBS, lysed with bead lyser, and centrifuged at 10,000 rpm. An equal quantity of protein (50 μg) from each treatment was loaded onto 12% SDS-PAGE and blotted onto the NC membrane, blocked with 5% skimmed milk. The membrane was probed with anti-prp8 intein rabbit polyclonal sera, followed by goat anti-rabbit HRP antibody. Signals were developed using a chemiluminescent kit. The density of the spliced intein bands (˜20 kDa) were quantified using Image lab software. A band at ˜130 kDa is uncharacterized, as explained below. NC: nitrocellulose. Abs: absorbance […]
TCEP to a final concentration of 1 mM was added to induce splicing and further incubated at RT for 24 h. […] The band densities were quantified using image lab software.

For `CNc1ccc2oc(C[C@H]3O[C@@]4(CC[C@H]3C)O[C@H]([C@H](C)C(=O)c3ccc[nH]3)[C@H](C)C[C@H]4C)nc2c1C(=O)O` [CMN, calcimycin], the MIC (C. neoformans (Cne-WT)) was 1.5 µg/mL, the MIC (C. neoformans (Cne-WT); Cne-WT, visual, 30° C., read-out: MIC) was 3 µM and the MIC [1] was 25.1 µg/mL and 48 µM. For the same molecule, the MIC (C. gattii (NIH444)) was 1.5 µg/mL and 3 µM, the MIC (C. amylolentus; C. amylolentus, visual, 48 h, 30° C.) was > 26.1 µg/mL and > 50 µM and the growth inhibition (C. amylolentus; natural inteinless cryptococcal sp. Cam) was “no inhibition was observed”. For the same molecule, the CC50 at 48 h [2] was 8.6 µM and 4.5 µg/mL, the MIC (A. fumigatus) was over 50 µM and the “ΔTm difference between CMN and DMSO” value ([3]; 1.2 µM CMN) was 3 °C. The “Tm of CnePrp8 intein” value ([3]; with 1.2 µM CMN (DMSO control 50.8±0.2)) was 53.8±0.2 °C and the “splicing of split GFP-Prp8 intein” value [4] was “inhibited with CMN dose-dependently”.
